Source: patent publication US10406207B2, “Peptide conjugates of GLP-1 receptor agonists and gastrin and their use” (priority 2010, dated 2019)
Square brackets hold non-standard residues; d marks the D form. Peptide text beside a SMILES is read from it. Orn = NCCC[C@H](N)C(=O)O; AEEA = NCCOCCOCC(=O)O

Legend:
human CCK-B R = molecular target: T1, human CCK-B R (Homo sapiens, UniProt P32239); test: Human CCK-B receptor efficacy assay (AlphaScreen SureFire p-ERK); type: cell-based; conditions: Table 2; read-out: hCCK-B R EC50
T1 construct: expressed in transfected cells
T1 sequence (P32239 1-447): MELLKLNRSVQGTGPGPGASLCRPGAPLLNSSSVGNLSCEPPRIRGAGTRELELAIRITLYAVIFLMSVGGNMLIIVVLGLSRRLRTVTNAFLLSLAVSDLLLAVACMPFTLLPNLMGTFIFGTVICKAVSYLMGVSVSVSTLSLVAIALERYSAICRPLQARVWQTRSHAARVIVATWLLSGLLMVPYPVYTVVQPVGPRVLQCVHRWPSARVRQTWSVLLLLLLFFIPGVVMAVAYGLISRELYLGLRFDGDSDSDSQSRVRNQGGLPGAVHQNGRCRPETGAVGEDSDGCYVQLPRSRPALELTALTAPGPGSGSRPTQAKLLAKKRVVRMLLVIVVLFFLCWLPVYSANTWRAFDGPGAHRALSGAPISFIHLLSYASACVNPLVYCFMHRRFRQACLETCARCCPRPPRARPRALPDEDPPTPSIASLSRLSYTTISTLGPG
Method: CCK-B Receptor (CCK-B R) Efficacy Assay:
In vitro effects of peptide conjugates of the invention were estimated by measuring p-ERK (using the AlphaScreen™ SureFire p-ERK assay) in HEK293 cells stably expressing the human and mouse CCK-B R (high-affinity Gastrin receptor), respectively. The Gastrin receptor efficacy assays (AlphaScreen™ SureFire p-ERK assay) were performed as follows:
The CCK-B R expressing cells in question were seeded at 20,000 cells/well in 100 μl growth medium [DMEM, 10% FCS, Penicillin (100 IU/ml), Streptomycin (100 μg/ml)] in a 96-well plate coated with poly-D-lysine. The cells were incubated in an incubator (37° C., 5% 002) for two days.
The growth medium was changed to 80 μl of serum-free medium [DMEM, Penicillin (100 IU/ml), Streptomycin (100 μg/ml)] per well, and incubation of the cells was continued for 19 hours in the incubator (37° C., 5% CO2).
After 19 hours, 20 μl of serum-free medium containing one of 5 different concentrations of peptide conjugate was added (performed in triplicate for each concentration), and the cells were incubated for 5 min. at room temperature. • 2. The stimulation medium was discarded by quickly turning the plate upside down, and 60 μl 1× lysis buffer (from the SureFire assay kit) was added per well. • 3. The plate was shaken on a plate-shaker for 5 min and then placed on ice. • 4. SureFire P-ERK assay: 4 μl of each supernatant was transferred to a 384 well proxiplate (Perkin Elmer). • 5. 4 μl of each of the two control lysates (unstimulated and stimulated) were added to the proxiplate in duplicate. • 6. […] 7 μl of the latter reaction buffer+activation buffer+beads per well were added in the proxiplate, the mix being resuspended carefully before addition to the wells. • 7. The plate was incubated for 2 hours in a dark box in a 22° C. incubator. • 8. The plate was analyzed on an Envision™ light-emission plate reader (Perkin-Elmer) using the appropriate reading program (Perkin-Elmer).

human GLP-1 R = molecular target: T2, human GLP-1 R (Homo sapiens, UniProt P43220); test: Human GLP-1 receptor efficacy assay (cAMP induction, FlashPlate); type: cell-based; conditions: Table 2; read-out: hGLP-1 R EC50
T2 construct: expressed in transfected cells
Method: On the day of analysis, growth medium was removed and the cells were washed once with 200 μl Tyrode buffer [Tyrode's Salts (9.6 g/l), 10 mM HEPES, pH 7.4]. […] The reaction was stopped by addition of 25 μl 0.5 M HCl and incubated on ice for 60 min.

T2 sequence (P43220 24-463): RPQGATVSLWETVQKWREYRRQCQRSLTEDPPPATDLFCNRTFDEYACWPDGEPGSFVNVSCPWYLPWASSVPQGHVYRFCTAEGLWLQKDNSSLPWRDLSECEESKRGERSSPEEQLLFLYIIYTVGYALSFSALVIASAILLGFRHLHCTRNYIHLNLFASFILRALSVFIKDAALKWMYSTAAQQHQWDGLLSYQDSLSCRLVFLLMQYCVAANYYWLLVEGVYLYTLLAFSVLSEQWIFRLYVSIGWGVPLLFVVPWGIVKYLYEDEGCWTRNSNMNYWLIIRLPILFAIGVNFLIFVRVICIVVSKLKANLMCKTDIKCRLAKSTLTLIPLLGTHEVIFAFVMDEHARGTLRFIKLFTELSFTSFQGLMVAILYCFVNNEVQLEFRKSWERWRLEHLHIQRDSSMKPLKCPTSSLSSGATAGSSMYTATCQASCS

SMILES | EC50 (human CCK-B R) [nM] | EC50 (human GLP-1 R) [nM]
CC[C@H](C)[C@H](NC(=O)[C@H](Cc1ccccc1)NC(=O)[C@H](CC(C)C)NC(=O)[C@H](CCCNC(=N)N)NC(=O)[C@@H](NC(=O)[C@H](C)NC(=O)[C@H](CCC(=O)O)NC(=O)[C@H](CCC(=O)O)NC(=O)[C@H](CCC(=O)O)NC(=O)[C@H](CC(C)C)NC(=O)[C@H](Cc1ccc(O)cc1)NC(=O)[C@H](CCCNC(=N)N)NC(=O)[C@H](CO)NC(=O)[C@H](CC(C)C)NC(=O)[C@H](CC(=O)O)NC(=O)[C@H](CO)NC(=O)[C@@H](NC(=O)[C@H](Cc1ccccc1)NC(=O)[C@@H](NC(=O)CNC(=O)[C@H](CCC(=O)O)NC(=O)CNC(=O)[C@@H](N)Cc1c[nH]cn1)[C@@H](C)O)[C@@H](C)O)C(C)C)C(=O)N[C@@H](CCC(=O)O)C(=O)N[C@@H](Cc1ccccc1)C(=O)N[C@@H](CC(C)C)C(=O)N[C@@H](CCCCN)C(=O)NCCOCCOCC(=O)N[C@@H](Cc1ccc(O)cc1)C(=O)NCC(=O)N[C@@H](Cc1c[nH]c2ccccc12)C(=O)N[C@@H](CC(C)C)C(=O)N[C@@H](CC(=O)O)C(=O)N[C@@H](Cc1ccccc1)C(N)=O [Compound 95, [Arg12,Leu14,Phe25,Tyr13]Exendin-4(1-27)-Peg3-[Leu4]Gastrin6] (H-HGEGTFTSDLSRYLEEEAVRLFIEFLK[AEEA]YGWLDF-NH2) | 14 | 0.079
CC[C@H](C)[C@H](NC(=O)[C@H](Cc1ccccc1)NC(=O)[C@H](CC(C)C)NC(=O)[C@H](CCCNC(=N)N)NC(=O)[C@@H](NC(=O)[C@H](C)NC(=O)[C@H](CCC(=O)O)NC(=O)[C@H](CCC(=O)O)NC(=O)[C@H](CCC(=O)O)NC(=O)[C@H](CC(C)C)NC(=O)[C@H](Cc1ccc(O)cc1)NC(=O)[C@H](CCCCN)NC(=O)[C@H](CO)NC(=O)[C@H](CC(C)C)NC(=O)[C@H](CCC(=O)O)NC(=O)[C@H](CO)NC(=O)[C@@H](NC(=O)[C@H](Cc1ccccc1)NC(=O)[C@@H](NC(=O)CNC(=O)[C@H](CCC(=O)O)NC(=O)CNC(=O)[C@@H](N)Cc1c[nH]cn1)[C@@H](C)O)[C@@H](C)O)C(C)C)C(=O)N[C@@H](CCC(=O)O)C(=O)N[C@@H](Cc1ccccc1)C(=O)N[C@@H](CC(C)C)C(=O)N[C@@H](CCCCN)C(=O)N[C@@H](CCCN)C(=O)N[C@@H](CCCN)C(=O)N[C@@H](Cc1c[nH]c2ccccc12)C(=O)N[C@@H](CC(C)C)C(=O)N[C@@H](CC(=O)O)C(=O)N[C@@H](Cc1ccccc1)C(N)=O [Compound 100, [Glu9,Leu14,Phe25,Tyr13]Exendin-4(1-27)-Orn-Orn-[Leu2]Gastrin4] (H-HGEGTFTSELSKYLEEEAVRLFIEFLK[Orn][Orn]WLDF-NH2) | 860 | 0.11
CC[C@H](C)[C@H](NC(=O)[C@H](Cc1ccccc1)NC(=O)[C@H](CC(C)C)NC(=O)[C@H](CCCNC(=N)N)NC(=O)[C@@H](NC(=O)[C@H](C)NC(=O)[C@H](CCC(=O)O)NC(=O)[C@H](CCC(=O)O)NC(=O)[C@H](CCC(=O)O)NC(=O)[C@H](CC(C)C)NC(=O)[C@H](Cc1ccc(O)cc1)NC(=O)[C@H](CCCCN)NC(=O)[C@H](CO)NC(=O)[C@H](CC(C)C)NC(=O)[C@H](CCC(=O)O)NC(=O)[C@H](CO)NC(=O)[C@@H](NC(=O)[C@H](Cc1ccccc1)NC(=O)[C@@H](NC(=O)CNC(=O)[C@H](CCC(=O)O)NC(=O)CNC(=O)[C@@H](N)Cc1c[nH]cn1)[C@@H](C)O)[C@@H](C)O)C(C)C)C(=O)N[C@@H](CCC(=O)O)C(=O)N[C@@H](Cc1ccccc1)C(=O)N[C@@H](CC(C)C)C(=O)N[C@@H](CCCCN)C(=O)NCCOCCOCC(=O)N[C@@H](Cc1ccc(O)cc1)C(=O)NCC(=O)N[C@@H](Cc1c[nH]c2ccccc12)C(=O)N[C@@H](CC(C)C)C(=O)N[C@@H](CC(=O)O)C(=O)N[C@@H](Cc1ccccc1)C(N)=O [Compound 102, [Glu9,Leu14,Phe25,Tyr13]Exendin-4(1-27)-Peg3-[Leu4]Gastrin6] | 54 | 0.091

Second part, the compound after the results:

EC50 (human CCK-B R) [nM] | EC50 (human GLP-1 R) [nM] | SMILES
13 | 0.06 | CC[C@H](C)[C@H](NC(=O)[C@H](Cc1ccccc1)NC(=O)[C@H](CC(C)C)NC(=O)[C@H](CCCNC(=N)N)NC(=O)[C@@H](NC(=O)[C@H](C)NC(=O)[C@H](CCC(=O)O)NC(=O)[C@H](CCC(=O)O)NC(=O)[C@H](CCC(=O)O)NC(=O)[C@H](CC(C)C)NC(=O)[C@H](Cc1ccc(O)cc1)NC(=O)[C@H](CCCCN)NC(=O)[C@H](CO)NC(=O)[C@H](CC(C)C)NC(=O)[C@H](CCC(=O)O)NC(=O)[C@H](CO)NC(=O)[C@@H](NC(=O)[C@H](Cc1ccccc1)NC(=O)[C@@H](NC(=O)CNC(=O)[C@H](CCC(=O)O)NC(=O)CNC(=O)[C@@H](N)Cc1c[nH]cn1)[C@@H](C)O)[C@@H](C)O)C(C)C)C(=O)N[C@@H](CCC(=O)O)C(=O)N[C@@H](Cc1ccccc1)C(=O)N[C@@H](CC(C)C)C(=O)N[C@@H](CCCCN)C(=O)NCCOCCOCC(=O)N[C@@H](Cc1c[nH]c2ccccc12)C(=O)N[C@@H](CC(C)C)C(=O)N[C@@H](CC(=O)O)C(=O)N[C@@H](Cc1ccccc1)C(N)=O [Compound 97, [Glu9,Leu14,Phe25,Tyr13]Exendin-4(1-27)-Peg3-[Leu2]Gastrin4] (H-HGEGTFTSELSKYLEEEAVRLFIEFLK[AEEA]WLDF-NH2)
10 | 0.046 | CC[C@H](C)[C@H](NC(=O)[C@H](Cc1ccccc1)NC(=O)[C@H](CC(C)C)NC(=O)[C@H](CCCNC(=N)N)NC(=O)[C@@H](NC(=O)[C@H](C)NC(=O)[C@H](CCC(=O)O)NC(=O)[C@H](CCC(=O)O)NC(=O)[C@H](CCC(=O)O)NC(=O)[C@H](CC(C)C)NC(=O)[C@H](Cc1ccc(O)cc1)NC(=O)[C@H](CCCCN)NC(=O)[C@H](CO)NC(=O)[C@H](CC(C)C)NC(=O)[C@H](CCC(=O)O)NC(=O)[C@H](CO)NC(=O)[C@@H](NC(=O)[C@H](Cc1ccccc1)NC(=O)[C@@H](NC(=O)CNC(=O)[C@H](CCC(=O)O)NC(=O)CNC(=O)[C@@H](N)Cc1c[nH]cn1)[C@@H](C)O)[C@@H](C)O)C(C)C)C(=O)N[C@@H](CCC(=O)O)C(=O)N[C@@H](Cc1ccccc1)C(=O)N[C@@H](CC(C)C)C(=O)N[C@@H](CCCCN)C(=O)N[C@@H](CCCN)C(=O)NCCOCCOCC(=O)N[C@@H](Cc1c[nH]c2ccccc12)C(=O)N[C@@H](CC(C)C)C(=O)N[C@@H](CC(=O)O)C(=O)N[C@@H](Cc1ccccc1)C(N)=O [Compound 98, [Glu9,Leu14,Phe25,Tyr13]Exendin-4(1-27)-Orn-Peg3-[Leu2]Gastrin4] (H-HGEGTFTSELSKYLEEEAVRLFIEFLK[Orn][AEEA]WLDF-NH2)
51 | 0.041 | CC[C@H](C)[C@H](NC(=O)[C@H](Cc1ccccc1)NC(=O)[C@H](CC(C)C)NC(=O)[C@H](CCCNC(=N)N)NC(=O)[C@@H](NC(=O)[C@H](C)NC(=O)[C@H](CCC(=O)O)NC(=O)[C@H](CCC(=O)O)NC(=O)[C@H](CCC(=O)O)NC(=O)[C@H](CC(C)C)NC(=O)[C@H](Cc1ccc(O)cc1)NC(=O)[C@H](CCCCN)NC(=O)[C@H](CO)NC(=O)[C@H](CC(C)C)NC(=O)[C@H](CCC(=O)O)NC(=O)[C@H](CO)NC(=O)[C@@H](NC(=O)[C@H](Cc1ccccc1)NC(=O)[C@@H](NC(=O)CNC(=O)[C@H](CCC(=O)O)NC(=O)CNC(=O)[C@@H](N)Cc1c[nH]cn1)[C@@H](C)O)[C@@H](C)O)C(C)C)C(=O)N[C@@H](CCC(=O)O)C(=O)N[C@@H](Cc1ccccc1)C(=O)N[C@@H](CC(C)C)C(=O)N[C@@H](CCCCN)C(=O)NCCOCCOCC(=O)N[C@@H](CCCN)C(=O)N[C@@H](Cc1c[nH]c2ccccc12)C(=O)N[C@@H](CC(C)C)C(=O)N[C@@H](CC(=O)O)C(=O)N[C@@H](Cc1ccccc1)C(N)=O [Compound 99, [Glu9,Leu14,Phe25,Tyr13]Exendin-4(1-27)-Peg3-Orn-[Leu2]Gastrin4] (H-HGEGTFTSELSKYLEEEAVRLFIEFLK[AEEA][Orn]WLDF-NH2)
